Measurements: ChEMBL document CHEMBL4706707, “Discovery of novel HBV capsid assembly modulators by structure-based virtual screening and bioassays” (Bioorg Med Chem, 2021)

Key:
Hepatitis B virus [1] = assay: Antiviral activity against HBV infected in human HepG2.2.15 cells assessed as inhibition of viral growth measured by reduction in DNA level at 20 uM compound addition at every 3 days for 7 days by qPCR analysis relative to control; assay type: functional; settings: HepG2.2.15, 168 h, time 7 day
Hepatitis B virus [2] = assay: Antiviral activity against HBV infected in human HepG2.2.15 cells assessed as inhibition of viral growth measured by reduction in DNA level compound addition at every 3 days for 7 days by qPCR analysis; assay type: functional, organism-based
[3] = Cytotoxicity against human HepG2.2.15 cells assessed as reduction in cell viability compound addition at every 3 days for 7 days by MTT assay; assay type: cell-based, HepG2 2.2.15; settings: time 7 day
HEK293T = assay: Inhibition of HBV VFP-fused HBV-VN (N1 to 154 residue)/ VFP-fused HBV-VC (C155 to 239 residue) capsid protein assembly in 293T cells assessed as mean flouroscent intensity sat 50 uM by BIFC assay; assay type: cell-based; settings: Hepatitis B virus

Compound | inhibition at 20 µM (Hepatitis B virus [1]) | EC50 (Hepatitis B virus [2]) | CC50 at 168 h [3] | Flu intensity (HEK293T)
O=C(Nc1cc(Cl)ccc1O)c1cccc(N2C(=O)c3ccccc3C2=O)c1 | 8.12% | – | – | –
Cc1ccc(-c2cc(C(=O)N3CCN(Cc4ccccc4)CC3)c3ccccc3n2)cc1 | – | 14.5 µM | > 20 µM | –
CCOC(=O)C1=C(CN2CCOCC2)NC(c2nccs2)=N[C@H]1c1ccc(F)cc1Br | – | – | – | 0.41
COc1ccccc1N1CCN(C(=O)c2cc(-c3ccc(C)c(C)c3)nc3ccccc23)CC1 | – | 15.3 µM | > 20 µM | –
Cc1ccc(C(=O)COC(=O)c2ccccc2NC(=O)Cc2ccccc2)cc1 | 45.9% | – | – | –
CC(C)Cc1ccc(-c2cc(C(=O)N3CCC(Cc4ccccc4)CC3)c3ccccc3n2)cc1 | – | > 20 µM | > 20 µM | –
Cc1cccc(-c2cc(C(=O)NCc3ccccn3)c3ccccc3n2)c1 | – | > 20 µM | > 20 µM | –
O=C(c1cc(-c2ccsc2Cl)nc2ccccc12)N1CCC(Cc2ccccc2)CC1 | – | 6.7 µM | > 20 µM | –
Cc1ccc(-c2cc(C(=O)N3CCN(C/C=C/c4ccccc4)CC3)c3ccccc3n2)cc1C | 72.5% | 5.6 µM | > 20 µM | –
O=C(c1cc(-c2ccsc2Cl)nc2ccccc12)N1CCN(Cc2ccccc2)CC1 | – | 8.3 µM | > 20 µM | –
O=C(c1cc(-c2ccsc2Cl)nc2ccccc12)N1CCN(C/C=C/c2ccccc2)CC1 | – | 11.9 µM | > 20 µM | –
N#CC1=C(N)N(c2nc[nH]n2)C2=C(C(=O)C[C@@H](c3ccccc3)C2)[C@H]1c1cccnc1 | 33% | – | – | –
Cc1cccc(-c2cc(C(=O)N3CCC(Cc4ccccc4)CC3)c3ccccc3n2)c1 | – | 1.8 µM | > 20 µM | 0.25
O=C(Nc1ccccc1F)c1ccccc1C(=O)Nc1ccccc1F | 38.5% | – | – | –
Cc1ccc(CN2C(=N)C(C(=O)NCc3cccnc3)=CC3C(=O)N4C=CC=CC4=NC32)cc1 (centres undefined) | 54.5% | – | – | –
COc1cc(OC)c(C(=O)Nc2cccc(S(=O)(=O)N3CCCC3)c2)cc1OC | 2.32% | – | – | –
O=C(OCc1ccc(Cl)cc1)c1cc(-c2ccccc2)nc2ccccc12 | – | > 20 µM | > 20 µM | –

Compound | inhibition at 20 µM (Hepatitis B virus [1]) | EC50 (Hepatitis B virus [2]) | CC50 at 168 h [3] | Flu intensity (HEK293T)
Cc1ccc(-c2cc(C(=O)N3CCC(Cc4ccccc4)CC3)c3ccccc3n2)cc1 | – | 11.7 µM | > 20 µM | –
O=C(Nc1c(C(=O)N2CCCCCC2)cnn1-c1ccccc1)c1cccc(F)c1 | 13.5% | – | – | –
O=C(Nc1ccccc1N1CCN(C(=O)c2ccccc2)CC1)C(c1ccccc1)c1ccccc1 | 12.2% | – | – | –
O=C(CCCCC(=O)Nc1ccccc1C(=O)Nc1cccc(Cl)c1)Nc1ccccc1C(=O)Nc1cccc(Cl)c1 | 30.1% | – | – | –
CCN(C(=O)Cn1c([C@@H]2CC(=O)N(c3ccccc3C)C2)nc2ccccc21)c1ccccc1 | -8.36% | – | – | –
CCOc1cccc(-c2cc(C(=O)N3CCC(Cc4ccccc4)CC3)c3ccccc3n2)c1 | – | 9.8 µM | > 20 µM | –
CCOc1cccc(-c2cc(C(=O)NCc3nnc(C(C)(C)CC)s3)c3ccccc3n2)c1 | – | > 20 µM | > 20 µM | –
Cc1ccc(-c2n[nH]c(SCC(=O)N3c4ccccc4Sc4ccccc43)n2)cc1 | 48.7% | – | – | –
O=C(c1cc(-c2ccccc2)nc2ccccc12)N1CCC(Cc2ccccc2)CC1 | – | 8.7 µM | > 20 µM | –
O=C(CN1C(=O)c2ccccc2C1=O)Nc1ccccc1C(=O)N(Cc1ccccc1)Cc1ccccc1 | 23.3% | – | – | –
CCCc1nc2ccccc2n1Cc1nc2ccccc2n1CCO | 8.1% | – | – | –
COc1ccc(-c2cc(C(=O)OCc3ccccc3)c3ccccc3n2)cc1 | – | > 20 µM | > 20 µM | –
Cn1c(=O)[nH]c(=O)c2c1nc(SCc1ccc(Cl)cc1)n2CCCc1ccccc1 | 64.8% | – | – | –
O=C(NCc1ccc(Cl)cc1)c1cc(-c2ccccc2)nc2ccccc12 | – | 15.7 µM | > 20 µM | –
CS(=O)(=O)N1CCCc2cc(C(=O)Nc3ccccc3C(=O)NCc3ccccc3)ccc21 | 36.6% | – | – | –
O=C(c1cc(-c2cccc(Br)c2)nc2ccccc12)N1CCC(Cc2ccccc2)CC1 | – | > 20 µM | > 20 µM | –
Cc1ccc([C@H](C)NC(=O)c2cc(-c3cccc(C)c3)nc3ccccc23)cc1 | – | > 20 µM | > 20 µM | –
